In ChEMBL document CHEMBL1123565, “Synthesis and 5-hydroxytryptamine antagonist activity of 2-[[2-(dimethylamino)ethyl]thio]-3-phenylquinoline and its analogues” (J Med Chem, 1987):
The source made the active and inactive calls. The rule behind the calls is not given here.

Tests used:
Mus musculus [1] = assay: Antagonistic activity test against 5-Hydroxytryptamine-induced head shake in mouse after intraperitoneal administration; assay type: functional; details: ip, read-out: ID50 (the source's name)
Rattus norvegicus [2] = assay: Antagonistic activity against fenfluramine induced hyperthermia in rat after peroral administration; assay type: functional; details: po, read-out: ID50 (the source's name)
Rattus norvegicus [3] = assay: compound was tested for antagonistic activity against fenfluramine induced hyperthermia in rat after peroral administration at 50 mg/kg; NA denotes not active.; assay type: functional, organism-based; set-up: dose 50 mg/kg
Mus musculus [4] = species: Mus musculus; assay: compound was tested for antagonistic activity against 5-Hydroxytryptamine-induced head shake in mouse; assay type: functional; details: read-out: ID50 (the source's name)
Mus musculus [5] = assay: compound was tested for antagonistic activity against 5-Hydroxytryptamine-induced head shake in mouse after intraperitoneal administration; Value ranges from 0.35-0.77; assay type: functional; details: ip, read-out: ID50 (the source's name)
Rattus norvegicus [6] = assay: compound was tested for antagonistic activity against fenfluramine induced hyperthermia in rat after peroral administration; Value ranges from 0.1-1.3; assay type: functional; details: po, read-out: ID50 (the source's name)
Mus musculus [7] = assay: compound was tested for antagonistic activity against 5-Hydroxytryptamine-induced head shake in mouse after intraperitoneal administration; NA denotes not active.; assay type: functional, organism-based
Mus musculus [8] = assay: compound was tested for antagonistic activity against 5-Hydroxytryptamine-induced head shake in mouse after intraperitoneal administration; Value ranges from 0.02-0.9; assay type: functional; details: ip, read-out: ID50 (the source's name)
Rattus norvegicus [9] = assay: compound was tested for antagonistic activity against fenfluramine induced hyperthermia in rat after peroral administration 0.02-0.3; assay type: functional; details: po, read-out: ID50 (the source's name)
Rattus norvegicus [10] = assay: compound was tested for antagonistic activity against fenfluramine induced hyperthermia in rat after peroral administration; NA denotes not active at a dose of 50 mg/kg.; assay type: functional, organism-based; set-up: dose 50 mg/kg
Rattus norvegicus [11] = assay: compound was tested for antagonistic activity against fenfluramine induced hyperthermia in rat after peroral administration; Value ranges from 0.3-4.3; assay type: functional; details: po, read-out: ID50 (the source's name)
Mus musculus [12] = assay: compound was tested for antagonistic activity against 5-Hydroxytryptamine-induced head shake in mouse after intraperitoneal administration; Value ranges from 1.0-2.5; assay type: functional; details: ip, read-out: ID50 (the source's name)
Mus musculus [13] = assay: compound was tested for antagonistic activity against 5-Hydroxytryptamine-induced head shake in mouse after intraperitoneal administration; NA denotes not active at a dose of 50 mg/kg.; assay type: functional, organism-based; set-up: dose 50 mg/kg
Rattus norvegicus [14] = assay: compound was tested for antagonistic activity against fenfluramine induced hyperthermia in rat after peroral administration at 50 mg/kg; assay type: functional, organism-based; set-up: dose 50 mg/kg
Rattus norvegicus [15] = assay: compound was tested for antagonistic activity against fenfluramine induced hyperthermia in rat after peroral administration at a dose of 50 mg/kg; NA denotes not active.; assay type: functional, organism-based; set-up: dose 50 mg/kg
Rattus norvegicus [16] = species: Rattus norvegicus; assay: compound was tested for antagonistic activity against fenfluramine induced hyperthermia in rat; assay type: functional; details: read-out: ID50 (the source's name)

| Compound | ED50 (Mus musculus [1]) [mg/kg] | ED50 (Rattus norvegicus [2]) [mg/kg] | further results |
| --- | --- | --- | --- |
| Cc1cccc(-c2cc3ccccc3nc2SCCN(C)C)c1.Cl | 1.7 | 5.9 |  |
| CCCCc1cc2ccccc2nc1SCCN(C)C.Cl | 2.3 | 50 |  |
| Cc1c(-c2ccccc2)c(SCCN(C)C)nc2ccccc12.O=C(O)C(=O)O | 6.2 | 50 |  |
| CN(C)CCSc1nc2ccc(Cl)cc2cc1-c1ccccc1.O=C(O)C(=O)O | 50 | 50 |  |
| Cc1c(C(C)C)c(SCCN(C)C)nc2ccccc12.O=C(O)C(=O)O | 50 |  | ID50 (Rattus norvegicus [3]): inactive |
| CCCc1cc2ccccc2nc1SCCN(C)C.O=C(O)C(=O)O |  |  | ED50 (Mus musculus [4]): 5 mg/kg; ID50 (Rattus norvegicus [3]): inactive |
| CCCOc1ccc2cc(-c3ccccc3)c(SCCN(C)C)nc2c1.O=C(O)C(=O)O | 50 | 50 |  |
| CC[C@@H](CO)NC(=O)[C@@H]1C=C2c3cccc4c3c(cn4C)C[C@H]2N(C)C1 [METHYSERGIDE] |  |  | ED50 (Mus musculus [5]): 0.52 mg/kg; ED50 (Rattus norvegicus [6]): 0.4 mg/kg |
| CN(C)CCSc1nc2ccc(Br)cc2cc1-c1ccccc1.O=C(O)C(=O)O | 50 | 6.7 |  |
| Cc1ccc(-c2cc3ccccc3nc2SCCN(C)C)cc1.Cl | 1.9 | 4.2 |  |
| CN(C)CCSc1nc2ccccc2cc1-c1ccc(O)cc1.Cl | 7.9 | 50 |  |
| CN(C)CCSc1nc2ccccc2cc1Cc1ccccc1.Cl | 50 |  | ID50 (Rattus norvegicus [3]): inactive |
| CN(C)CCSc1nc2ccccc2cc1C1CC1.O=C(O)C(=O)O | 3.4 | 25 |  |
| CN(C)CCSc1nc2cc(N(C)C)ccc2cc1-c1ccccc1.O=C(O)C(=O)O |  | 50 | ID50 (Mus musculus [7]): inactive |
| CNCCSc1nc2ccccc2cc1-c1ccccc1.Cl | 6.2 | 7 |  |
| CN(C)CCSc1nc2ccccc2c(C(N)=O)c1-c1ccccc1 |  |  | ID50 (Mus musculus [7]): inactive; ID50 (Rattus norvegicus [3]): inactive |
| O=C(c1ccc(F)cc1)C1CCN(CCn2c(=O)[nH]c3ccccc3c2=O)CC1 [KETANSERIN] |  |  | ED50 (Mus musculus [8]): 0.5 mg/kg; ED50 (Rattus norvegicus [9]): 0.1 mg/kg |
| CN(C)CCSc1nc2ccccc2cc1C(C)(C)C.O=C(O)C(=O)O | 50 |  | ID50 (Rattus norvegicus [3]): inactive |
| Cc1ccccc1-c1cc2ccccc2nc1SCCN(C)C.Cl | 3 | 50 |  |
| CN(C)CCSc1nc2ccccc2cc1-c1ccsc1.O=C(O)C(=O)O | 3.4 | 7.9 |  |
| CN(C)CCSc1nc2ccccc2cc1-c1ccc(F)cc1.Cl | 1.7 | 2.9 |  |

| Compound | ED50 (Mus musculus [1]) [mg/kg] | ED50 (Rattus norvegicus [2]) [mg/kg] | further results |
| --- | --- | --- | --- |
| CSc1ccc2cc(-c3ccccc3)c(SCCN(C)C)nc2c1 |  | 50 | ID50 (Mus musculus [7]): inactive |
| COc1c(-c2ccc(F)cc2)c(SCCN(C)C)nc2ccccc12.O=C(O)C(=O)O | 50 | 3.3 |  |
| CN(C)CCSc1nc2ccccc2cc1-c1ccc(Cl)cc1.Cl | 9.1 |  | ID50 (Rattus norvegicus [10]): inactive |
| Cc1c(-c2ccsc2)c(SCCN(C)C)nc2ccccc12.O=C(O)C(=O)O | 3.1 | 50 |  |
| CCCOc1ccc(-c2cc3ccccc3nc2SCCN(C)C)cc1.Cl | 0.5 | 5.3 |  |
| COc1ccc2cc(-c3ccccc3)c(SCCN(C)C)nc2c1.Cl | 50 | 3.1 |  |
| COc1ccccc1-c1cc2ccccc2nc1SCCN(C)C.Cl | 1.2 | 4.6 |  |
| CN(C)CCSc1nc2ccccc2cc1-c1ccccc1.Cl |  |  | ED50 (Rattus norvegicus [11]): 1.2 mg/kg; ED50 (Mus musculus [12]): 1.6 mg/kg |
| COc1ccc(OC)c(-c2cc3ccccc3nc2SCCN(C)C)c1.Cl | 3 | 4.2 |  |
| COc1ccc2nc(SCCN(C)C)c(-c3ccccc3)cc2c1.O=C(O)C(=O)O | 50 | 8.3 |  |
| CN(C)CCSc1nc2ccccc2cc1-c1ccccc1Cl.Cl | 50 | 9.9 |  |
| CC(c1ccccc1)c1cc2ccccc2nc1SCCN(C)C.O=C(O)C(=O)O (stereo not drawn) | 50 |  | ID50 (Rattus norvegicus [3]): inactive |
| CN(C)CCSc1nc2ccccc2cc1C1CCCC1.O=C(O)C(=O)O | 50 |  | ID50 (Rattus norvegicus [3]): inactive |
| Cc1cc2ccccc2nc1SCCN(C)C |  |  | ID50 (Mus musculus [13]): inactive; ID50 (Rattus norvegicus [14]): inactive |
| CCc1cc2ccccc2nc1SCCN(C)C.Cl | 50 | 50 |  |
| Cc1ncc(-c2cc3ccccc3nc2SCCN(C)C)s1.O=C(O)C(=O)O | 4.9 | 6.9 |  |
| CCC(C)c1cc2ccccc2nc1SCCN(C)C.O=C(O)C(=O)O (stereo not drawn) | 1.5 | 50 |  |
| COc1cccc(-c2cc3ccccc3nc2SCCN(C)C)c1.Cl | 25 | 5.1 |  |
| CC(C)c1cc2ccccc2nc1SCCN(C)C.Cl | 2.6 | 2.7 |  |
| CN(C)CCSc1nc2ccccc2cc1-c1cccs1.O=C(O)C(=O)O | 4.9 | 6.9 |  |
| CSc1ccc2nc(SCCN(C)C)c(-c3ccccc3)cc2c1.O=C(O)C(=O)O | 50 | 10.3 |  |

| Compound | ED50 (Mus musculus [1]) [mg/kg] | ED50 (Rattus norvegicus [2]) [mg/kg] | further results |
| --- | --- | --- | --- |
| CN(C)CCSc1nc2ccccc2cc1-c1ccc(C#N)cc1.Cl | 1.2 | 10.7 |  |
| COc1ccccc1-c1cc2cc(C)ccc2nc1SCCN(C)C.O=C(O)C(=O)O | 50 | 50 |  |
| CN(C)CCSc1nc2ccccc2cc1-c1cccc(F)c1.Cl | 2.5 | 4.6 |  |
| COc1c(-c2ccccc2C)c(SCCN(C)C)nc2ccccc12.Cl | 50 | 7.2 |  |
| CN(C)CCSc1nc2ccccc2cc1C1CCCCC1.Cl | 50 | 50 |  |
| Cc1ccc2cc(-c3ccccc3)c(SCCN(C)C)nc2c1.O=C(O)C(=O)O | 50 | 50 |  |
| CN(C)CCSc1nc2ccccc2cc1-c1ccc(Br)cc1.Cl | 19.1 | 50 |  |
| CN(C)CCSc1nc2ccccc2cc1-c1ccc(C(F)(F)F)cc1.Cl | 50 |  | ID50 (Rattus norvegicus [15]): inactive |
| CCN(CC)CCSc1nc2ccccc2cc1-c1ccccc1.Cl | 25 | 50 |  |
| Cc1c(-c2ccc(F)cc2)c(SCCN(C)C)nc2ccccc12.O=C(O)C(=O)O | 50 | 11.1 |  |
| CCN(C)CCSc1nc2ccccc2cc1-c1ccccc1.O=C(O)C(=O)O | 50 |  |  |
| COc1ccccc1-c1c(SCCN(C)C)nc2ccccc2c1C.O=C(O)C(=O)O | 50 | 50 |  |
| COc1c(-c2ccsc2)c(SCCN(C)C)nc2ccccc12.O=C(O)C(=O)O | 50 |  | ID50 (Rattus norvegicus [3]): inactive |
| CN(C)CCSc1nc2ccccc2cc1-c1ccccn1.O=C(O)C(=O)O | 3.4 | 50 |  |
| COc1c(-c2ccccc2)c(SCCN(C)C)nc2ccccc12.O=C(O)C(=O)O | 3.5 | 5.5 |  |
| Cl.NCCSc1nc2ccccc2cc1-c1ccccc1 | 50 | 4.8 |  |
| COc1ccc(-c2cc3ccccc3nc2SCCN(C)C)cc1.Cl | 5.9 | 28 |  |
| CSc1ccc(-c2cc3ccccc3nc2SCCN(C)C)cc1.Cl | 10 |  | ED50 (Rattus norvegicus [16]): 7.8 mg/kg |
| CN(C)CCSc1nc2ccccc2cc1-c1ccccc1F.Cl | 1.9 | 7.2 |  |
| Cc1cccc2cc(-c3ccccc3)c(SCCN(C)C)nc12 |  |  | ID50 (Mus musculus [7]): inactive; ID50 (Rattus norvegicus [3]): inactive |
